Consider 39 compounds from patent US8168656B2, “Indoleacetic acid and indenacetic acid derivatives as therapeutic agents with reduced gastrointestinal toxicity” (Vanderbilt University, priority 2009, dated 2012).

Read-outs that look alike come from different tables or passages of the source.

The subject of one experiment is HCT-116 cells. Put plainly: Cell viability assay (WST-1). It counts as cell-based. Particulars: Homo sapiens. The procedure:
(§1) RKO and HCT-116 cells (human colorectal cancer cell lines) were cultured in microtiter plates (tissue culture grade, 96-well flat) in a final volume of 100 μl culture medium containing 5-8×10^4 cells and the final concentrations of chemicals (1-500 μM). Cells were incubated in a humidified atmosphere for 8-24 hours. To the cultures, 10 μl of cell proliferation reagent, WST-1 (Roche Applied Science, Indianapolis, Ind., United States of America) was added, and reincubated for 1-2 hours. The absorbance of the samples was determined using a microtiter plate reader at a wavelength of 405-450 nm against background control. Reference wavelength was 620 nm. The tetrazolium salt, WST-1 (4-[3-(4-Iodophenyl)-2-(4-nitrophenyl)-2H-5-tetrazolio]-1,3-benzene disulfonate) was metabolized to formazan by the “succinate-tetrazolium reductase” system, which exists in mitochondria and is active only in viable cells. Thus, the formation of formazan (dark yellow color) is proportional to the viable cell numbers.
(§2) The generated data points were used to calculate ED50 values by creating a sigmoidal dose-response curve using non-linear regression. ED50 valued were calculated using the statistical analysis program PRISM® (GraphPad Software, Inc., San Diego, Calif., United States of America).
In general terms: Tetrazolium assays rely on reduction of a dye to a coloured formazan, in cell work by metabolically active cells.

For the next experiment, the system named is RKO cells. The experiment is described as follows: Cell viability assay (WST-1). It is filed as cell-based. Particulars: Homo sapiens. The method, then: as §1, §2
Setting [1] is: concentration that reduces cell viability by 50%, read-out: ED50 HCT-116.
The mark [2] stands for this setting: concentration that reduces cell viability by 50%, read-out: ED50 RKO.
Setting [3] is: second part of Table 9, read-out: ED50 HCT-116.
Where [4] appears, read: second part of Table 9, read-out: ED50 RKO.

Take `CSc1ccc(/C=C2\C=C(CC(=O)Nc3ccccc3)c3cc(F)ccc32)cc1` [Compound 2]: the EC50 with HCT-116 cells (setting [1]) and with RKO cells (setting [2]) was > 3 µM throughout. In the case of `CSc1ccc(/C=C2\C=C(CC(=O)NCc3ccccc3)c3cc(F)ccc32)cc1` [Compound 3], the EC50 in the experiment on HCT-116 cells (setting [1]) came out at 3.9 ± 0.9 µM; with RKO cells (setting [2]), 1.1 ± 0.7 µM.

Consider `CSc1ccc(/C=C2\C=C(CC(=O)NCCc3ccccc3)c3cc(F)ccc32)cc1` [Compound 4], for which the EC50 with HCT-116 cells (setting [1]) and in the experiment on RKO cells (setting [2]) was > 3 µM in each case.

For `CSc1ccc(/C=C2\C=C(CC(=O)NCCCc3ccccc3)c3cc(F)ccc32)cc1` [Compound 5], the EC50 in the experiment on HCT-116 cells (setting [1]) and in the experiment on RKO cells (setting [2]) was > 3 µM throughout. For `CSc1ccc(/C=C2\C=C(CC(=O)N(C)Cc3ccccc3)c3cc(F)ccc32)cc1` [Compound 6], the EC50 with HCT-116 cells (setting [1]) and in the experiment on RKO cells (setting [2]) was > 3 µM each time. As to `CSc1ccc(/C=C2\C=C(CC(=O)N[C@@H](C)c3ccccc3)c3cc(F)ccc32)cc1` [Compound 7], the EC50 in the experiment on HCT-116 cells (setting [1]) and in the experiment on RKO cells (setting [2]) was > 3 µM throughout.

For `CSc1ccc(/C=C2\C=C(CC(=O)N[C@H](C)c3ccccc3)c3cc(F)ccc32)cc1` [Compound 8], the EC50 in the experiment on HCT-116 cells (setting [1]) and with RKO cells (setting [2]) was > 3 µM throughout. As to `CSc1ccc(/C=C2\C=C(CC(=O)NCc3ccncc3)c3cc(F)ccc32)cc1` [Compound 9], the EC50 in the experiment on HCT-116 cells (setting [1]) and with RKO cells (setting [2]) was > 3 µM in each case. As to `CSc1ccc(/C=C2\C=C(CC(=O)Nc3ccc(F)cc3Cl)c3cc(F)ccc32)cc1` [Compound 10], the EC50 in the experiment with HCT-116 cells (setting [1]) and in the experiment on RKO cells (setting [2]) was > 3 µM throughout.

For the compound `COc1ccc(NC(=O)CC2=C/C(=C\c3ccc(SC)cc3)c3ccc(F)cc32)cc1` [Compound 11], the EC50 in the experiment with HCT-116 cells (setting [1]) and in the experiment with RKO cells (setting [2]) was > 3 µM in each case. `CSc1ccc(/C=C2\C=C(CC(=O)NCc3ccc(N)cc3)c3cc(F)ccc32)cc1` [Compound 12]: the EC50 in the experiment on HCT-116 cells (setting [1]) was > 3 µM; in the experiment on RKO cells (setting [2]), 2.3 ± 0.03 µM.

As to `CSc1ccc(/C=C2\C=C(CC(=O)NCc3cccc(N)c3)c3cc(F)ccc32)cc1` [Compound 13], the values for the EC50 with HCT-116 cells (setting [1]) and with RKO cells (setting [2]) were 2.08 ± 0.08 µM and 0.99 ± 0.03 µM, respectively. With `CSc1ccc(/C=C2\C=C(CC(=O)NCc3ccccc3N)c3cc(F)ccc32)cc1` [Compound 14], the EC50 in the experiment on HCT-116 cells (setting [1]) and with RKO cells (setting [2]) was > 3 µM throughout. As to `CSc1ccc(/C=C2\C=C(CC(=O)NCc3ccc(O)cc3)c3cc(F)ccc32)cc1` [Compound 15], the EC50 with HCT-116 cells (setting [1]) came out at 1.2 ± 0.2 µM; in the experiment on RKO cells (setting [2]) it was 0.1 ± 0.04 µM. Consider `CSc1ccc(/C=C2\C=C(CC(=O)NCc3cccc(O)c3)c3cc(F)ccc32)cc1` [Compound 16], for which the results for the EC50 with HCT-116 cells (setting [1]) and in the experiment on RKO cells (setting [2]) were 1.47 ± 0.03 µM and 0.83 ± 0.06 µM, respectively. Turning to `CSc1ccc(/C=C2\C=C(CC(=O)NCc3ccc(C)cc3)c3cc(F)ccc32)cc1` [Compound 17], the values for the EC50 in the experiment on HCT-116 cells (setting [1]) and in the experiment on RKO cells (setting [2]) were 1.2 ± 0.1 µM and 0.73 ± 0.06 µM, respectively. On to `CSc1ccc(/C=C2\C=C(CC(=O)NCc3cccc(C)c3)c3cc(F)ccc32)cc1` [Compound 18], for which the EC50 in the experiment on HCT-116 cells (setting [1]) and in the experiment on RKO cells (setting [2]) was > 3 µM each time. `CSc1ccc(/C=C2\C=C(CC(=O)NCc3ccccc3C)c3cc(F)ccc32)cc1` [Compound 19]: the EC50 with HCT-116 cells (setting [1]) and with RKO cells (setting [2]) was > 3 µM in each case. With `CSc1ccc(/C=C2\C=C(CC(=O)NCc3ccc(Cl)cc3)c3cc(F)ccc32)cc1` [Compound 20], the EC50 in the experiment on HCT-116 cells (setting [1]) is 0.8 ± 0.1 µM; with RKO cells (setting [2]), 0.63 ± 0.07 µM. Take `CSc1ccc(/C=C2\C=C(CC(=O)NCc3cccc(Cl)c3)c3cc(F)ccc32)cc1` [Compound 21]: the EC50 in the experiment with HCT-116 cells (setting [1]) and in the experiment on RKO cells (setting [2]) was > 3 µM each time. With `CSc1ccc(/C=C2\C=C(CC(=O)NCc3ccc(Br)cc3)c3cc(F)ccc32)cc1` [Compound 22], the values for the EC50 in the experiment with HCT-116 cells (setting [1]) and in the experiment with RKO cells (setting [2]) were 1.3 ± 0.2 µM and 0.67 ± 0.07 µM, respectively. For the compound `CSc1ccc(/C=C2\C=C(CC(=O)NCc3cccc(Br)c3)c3cc(F)ccc32)cc1` [Compound 23], the EC50 in the experiment on HCT-116 cells (setting [1]) and with RKO cells (setting [2]) was > 3 µM in each case. Turning to `CSc1ccc(/C=C2\C=C(CC(=O)NCc3ccc(C(F)(F)F)cc3)c3cc(F)ccc32)cc1` [Compound 24], the EC50 in the experiment on HCT-116 cells (setting [1]) and in the experiment with RKO cells (setting [2]) was > 3 µM throughout. For `CSc1ccc(/C=C2\C=C(CC(=O)NCc3cccc(C(F)(F)F)c3)c3cc(F)ccc32)cc1` [Compound 25], the EC50 with HCT-116 cells (setting [1]) and in the experiment on RKO cells (setting [2]) was > 3 µM in each case. With `CSc1ccc(/C=C2\C=C(CC(=O)NCc3ccc([N+](=O)[O-])cc3)c3cc(F)ccc32)cc1` [Compound 26], the EC50 turned out to be 2.1 ± 0.7 µM in the experiment with HCT-116 cells (setting [1]) and 0.54 ± 0.07 µM in the experiment with RKO cells (setting [2]). Take `CSc1ccc(/C=C2\C=C(CC(=O)NCc3cccc([N+](=O)[O-])c3)c3cc(F)ccc32)cc1` [Compound 27]: the EC50 in the experiment with HCT-116 cells (setting [1]) and in the experiment with RKO cells (setting [2]) was > 3 µM in each case. As to `CSc1ccc(/C=C2\C=C(CC(=O)NCc3ccccc3[N+](=O)[O-])c3cc(F)ccc32)cc1` [Compound 28], the EC50 in the experiment with HCT-116 cells (setting [1]) and in the experiment on RKO cells (setting [2]) was > 3 µM throughout.

In the case of `[N-]=[N+]=NCc1ccc(/C=C2\C=C(CC(=O)NCc3ccc(C4(c5ccccc5)CO4)cc3)c3cc(F)ccc32)cc1` (centres unmarked) [Compound 29], the EC50 in the experiment on HCT-116 cells (setting [1]) and with RKO cells (setting [2]) was > 3 µM in each case.

`CSc1ccc(/C=C2\C=C(CC(=O)NCc3ccc(C(=O)c4ccccc4)cc3)c3cc(F)ccc32)cc1` [Compound 30]: the values for the EC50 in the experiment on HCT-116 cells (setting [1]) and in the experiment with RKO cells (setting [2]) were 0.18 ± 0.04 µM and 0.04 ± 0.02 µM, respectively.

For the compound `[N-]=[N+]=NCc1ccc(/C=C2\C=C(CC(=O)NCc3ccc(NC(=O)CBr)cc3)c3cc(F)ccc32)cc1` [Compound 31], the EC50 in the experiment on HCT-116 cells (setting [1]) and in the experiment with RKO cells (setting [2]) was > 3 µM each time.

With `C[S+]([O-])c1ccc(/C=C2\C=C(CC(=O)NCc3ccccc3)c3cc(F)ccc32)cc1` (centres unmarked) [Compound 32], the results for the EC50 in the experiment with HCT-116 cells (setting [3]) and with RKO cells (setting [4]) were 6 ± 1 µM and 2.4 ± 0.2 µM, respectively. On to `CS(=O)(=O)c1ccc(/C=C2\C=C(CC(=O)NCc3ccccc3)c3cc(F)ccc32)cc1` [Compound 33], for which the EC50 with HCT-116 cells (setting [3]) came out at 1.2 ± 0.3 µM; with RKO cells (setting [4]) it was 0.8 ± 0.1 µM. Take `O=C(CC1=C/C(=C\c2ccccc2)c2ccc(F)cc21)NCc1ccccc1` [Compound 34]: the EC50 in the experiment with RKO cells (setting [4]) was 5.4 ± 0.5 µM. For the compound `COc1ccc(/C=C2\C=C(CC(=O)NCc3ccccc3)c3cc(F)ccc32)cc1` [Compound 35], the EC50 with HCT-116 cells (setting [3]) worked out at 1 ± 0.8 µM; with RKO cells (setting [4]) it was 0.7 ± 0.1 µM. With `O=C(O)CC1=C/C(=C\c2ccc(C(=O)O)cc2)c2ccc(F)cc21` [Compound 36], the EC50 in the experiment on RKO cells (setting [4]) was 6.4 ± 0.6 µM. On the same count and under the same terms, to `O=C(O)CC1=C/C(=C\c2ccc(Br)cc2)c2ccc(F)cc21` [Compound 37] belongs > 10 µM; to `O=C(CC1=C/C(=C\C2CCCCC2)c2ccc(F)cc21)NCc1ccccc1` [Compound 38], 6.7 ± 0.1 µM. With `COc1ccc2c(c1)c(CC(=O)O)c(C)n2C(=O)c1ccc(Cl)cc1` [Indomethacin, indomethacin, reference compound], the results for the EC50 in the experiment with HCT-116 cells (setting [1]) and in the experiment with RKO cells (setting [2]) were 449 ± 97.6 µM and 162 ± 11 µM, respectively. Regarding `CSc1ccc(/C=C2/C(C)=C(CC(=O)O)c3cc(F)ccc32)cc1` [Sulindac sulfide, reference compound], the EC50 in the experiment on HCT-116 cells (setting [1]) was found to be 109 ± 10 µM; in the experiment on RKO cells (setting [2]), 98.2 ± 1.4 µM.
